PMC6193938, “Characterization of a novel AICARFT inhibitor which potently elevates ZMP and has anti-tumor activity in murine models” (Scientific Reports, 2018)
Where two headings read alike, the source gives them in different places.

Test system: panel of human cell lines
Experiment: In vitro proliferation assay, Cell Titer Glo, two doubling times, 298 cell lines
Type: cell-based
Conditions: read-out: ABS_IC50_VALUE
Excerpt: Cell Titer Glo measures ATP, thus the IC50s represent both the effect on purine production and cell proliferation, which are related. […] Folates are actively taken up in cells by reduced folate carrier (SLC19A1), proton-coupled folate transporter (SLC46A1), and the FOLR1 folate receptor[17]. Once inside the cell, folates are trapped by polyglutamation catalyzed by folylpolyglutamate synthetase (FPGS). […] Gene expression data for ATIC, GART, APRT, HPRT, FOLR1, SLC19A1, SLC46A1 & FPGS are shown in Fig. 2, since these genes were anticipated to predict sensitivity. […] The MDA-MB-231 cell line is reduced folate carrier (SLC19A1) negative due to epigenetic silencing.
Cells were cultured using recommended culture conditions unless noted otherwise (Supplemental Table 3). Cells were plated, dosed with compound and incubated at 37 °C for approximately 2 doubling times as determined for each cell line. Cell Titer Glo (Promega) assay was used to measure proliferation according to manufacturer’s recommendations by measuring luminescence with Flexstation3 (Molecular Devices) with 500 ms integration time. […] The % response was fit to a four-parameter logistic equation using ACTIVITYBASE 4.0 to determine the absolute IC50 values.
Cell Lines: Cell lines of adrenal gland, autonomic ganglia, biliary tract, blood ALL, blood AML, blood CML, blood hodgkin lymphoma, blood lymphoma, blood multiple myeloma, blood NHL, blood RAEB, bone, breast ER+, breast fibroblast, breast fibroblast mixed, breast HER2, breast normal, breast triple negative, cervix, CNS, endometrium, eye, fibroblast normal, kidney ns, kidney renal, large intestine, liver, liver normal, lung adenocarcinoma, lung ns, lung NSCLC, lung NSCLC mixed, lung SCLC, lung squamous, melanoma, melanoma normal, esophagus adenocarcinoma, esophagus ns, esophagus squamous, ovary, pancreas adenocarcinoma, pancreas ductal carcinoma, pancreas ns, pleura mesothelioma, prostate adenocarcinoma, prostate small cell, salivary gland, small intestine, soft tissue, stomach, testis, thyroid, thyroid squamous, umbilical vein endothelial cell normal, upper aerodigestive tract squamous, urinary tract ns, urinary tract transitional cell carcinoma, and vulva squamous origin were obtained from ATCC, CASTCC, CLS, DSMZ, ECACC, HSRRB, ICLC, JCRB, NCI, Riken and SNU cell banks. The murine A9 cell line was acquired from the ATCC (CCL-1.4).

## O=c1[nH]ccc2cc(F)c(NS(=O)(=O)c3ccc(N4CC[C@@H](O)C4)s3)cc12 [LSN3213128, N-(6-Fluoro-1-oxo-1,2-dihydroisoquinolin-7-yl)-5-[(3R)-3-hydroxypyrrolidin-1-yl]thiophene-2-sulfonamide]
Homo sapiens, 22Rv1, 22RV1, prostate
  IC50: 13.7 µM
Homo sapiens, 769-P, kidney
  IC50: 1.21 µM
Homo sapiens, 5637, urinary tract
  IC50: 2.88 µM
Homo sapiens, 8505C, thyroid
  IC50: > 20 µM
Homo sapiens, A101D, skin
  IC50: 2.22 µM
Homo sapiens, A204, A204, soft tissue
  IC50: > 20 µM
Homo sapiens, A253, A253, salivary gland
  IC50: > 20 µM
Homo sapiens, A498, A498, kidney
  IC50: 12.2 µM
Homo sapiens, A549, A549, lung
  IC50: > 20 µM
Homo sapiens, A2058, A2058, skin
  IC50: > 20 µM
Homo sapiens, A2780, A2780, ovary
  IC50: 3.23 µM
Homo sapiens, ACHN, kidney
  IC50: 1.94 µM
Homo sapiens, AGS, stomach
  IC50: > 20 µM
Homo sapiens, ASPC1, AsPC-1, pancreas
  IC50: > 20 µM
Homo sapiens, AU565, AU565, breast
  IC50: 0.58 µM
Homo sapiens, BCP-1, BCP-1, haematopoietic and lymphoid tissue
  IC50: 11.1 µM
Homo sapiens, BT-20, BT-20, breast
  IC50: > 20 µM
Homo sapiens, BT-474, BT-474, breast
  IC50: > 20 µM
Homo sapiens, BT-483, BT-483, breast
  IC50: > 20 µM
Homo sapiens, BT-549, BT-549, breast
  IC50: > 20 µM
Homo sapiens, BXPC-3, BxPC-3, pancreas
  IC50: 4.49 µM
Homo sapiens, C2BBe1, C2BBe1, large intestine
  IC50: > 20 µM
Homo sapiens, C3A, liver
  IC50: 25.2 µM
Homo sapiens, C32, skin
  IC50: > 20 µM
Homo sapiens, CA46, CA46, haematopoietic and lymphoid tissue
  IC50: > 20 µM
Homo sapiens, CAKI-1, Caki-1, kidney
  IC50: > 20 µM
Homo sapiens, CAKI-2, Caki-2, kidney
  IC50: 5.03 µM
Homo sapiens, CAMA-1, CAMA-1, breast
  IC50: > 20 µM
Homo sapiens, CAPAN-1, CAPAN-1, pancreas
  IC50: > 20 µM
Homo sapiens, CCF-STTG1, CCF-STTG1, central nervous system
  IC50: > 20 µM
Homo sapiens, CFPAC-1, CFPAC-1, pancreas
  IC50: > 20 µM
Homo sapiens, CHL-1, CHL-1, skin
  IC50: > 20 µM
Homo sapiens, CHP-212, CHP-212, autonomic ganglia
  IC50: > 20 µM
Homo sapiens, COLO 205, COLO-205, large intestine
  IC50: 1.68 µM
Homo sapiens, COLO-320-HSR, large intestine
  IC50: 3.3 µM
Homo sapiens, COLO-680N, oesophagus
  IC50: 2.05 µM
Homo sapiens, COLO-741, COLO-741, large intestine
  IC50: 1.58 µM
Homo sapiens, COR-L23, COR-L23, lung
  IC50: 1.4 µM
Homo sapiens, Calu-1, Calu-1, lung
  IC50: > 20 µM
Homo sapiens, Calu-3, Calu-3, lung
  IC50: 2.27 µM
Homo sapiens, Calu-6, Calu-6, lung
  IC50: 11.9 µM
Homo sapiens, Capan-2, Capan-2, pancreas
  IC50: 15.3 µM
Homo sapiens, ChaGo-K-1, ChaGo-K-1, lung
  IC50: > 20 µM
Homo sapiens, D341 Med, central nervous system
  IC50: > 20 µM
Homo sapiens, DB, haematopoietic and lymphoid tissue
  IC50: 10.8 µM
Homo sapiens, DMS-53, DMS-53, lung
  IC50: > 20 µM
Homo sapiens, Daoy, central nervous system
  IC50: 1.02 µM
Homo sapiens, Daudi, haematopoietic and lymphoid tissue
  IC50: 1.1 µM
Homo sapiens, EB1, haematopoietic and lymphoid tissue
  IC50: 1.28 µM
Homo sapiens, EB2, haematopoietic and lymphoid tissue
  IC50: > 20 µM
Homo sapiens, ES-2, ovary
  IC50: > 20 µM
Homo sapiens, F-36P, haematopoietic and lymphoid tissue
  IC50: 0.79 µM
Homo sapiens, G-361, G-361, skin
  IC50: > 20 µM
Homo sapiens, G-401, G-401, kidney
  IC50: > 20 µM
Homo sapiens, G-402, G-402, soft tissue
  IC50: > 20 µM
Homo sapiens, GCT, soft tissue
  IC50: > 20 µM
Homo sapiens, GI-1, central nervous system
  IC50: 15.5 µM
Homo sapiens, GP2d, large intestine
  IC50: 14.3 µM
Homo sapiens, HCC38, HCC38, breast
  IC50: > 20 µM
Homo sapiens, HCC70, HCC70, breast
  IC50: > 20 µM
Homo sapiens, HCC202, HCC202, breast
  IC50: > 20 µM
Homo sapiens, HCC827, HCC827, lung
  IC50: 16 µM
Homo sapiens, HCC1143, HCC1143, breast
  IC50: > 20 µM
Homo sapiens, HCC1187, HCC1187, breast
  IC50: > 20 µM
Homo sapiens, HCC1395, HCC1395, breast
  IC50: > 20 µM
Homo sapiens, HCC1419, HCC1419, breast
  IC50: 10.4 µM
Homo sapiens, HCC1599, HCC1599, breast
  IC50: 3.65 µM
Homo sapiens, HCC1806, HCC1806, breast
  IC50: > 20 µM
Homo sapiens, HCC1937, HCC1937, breast
  IC50: 18.5 µM
Homo sapiens, HCC1954, HCC1954, breast
  IC50: 0.09 µM
Homo sapiens, HCC2218, HCC2218, breast
  IC50: > 20 µM
Homo sapiens, HCT-15, HCT-15, large intestine
  IC50: 3.51 µM
Homo sapiens, HEC-1-A, endometrium
  IC50: 13.6 µM
Homo sapiens, HGC-27, HGC-27, stomach
  IC50: > 20 µM
Homo sapiens, HL-60, HL-60, haematopoietic and lymphoid tissue
  IC50: > 20 µM
Homo sapiens, HLE, liver
  IC50: 15 µM
Homo sapiens, HLF, liver
  IC50: 9.35 µM
Homo sapiens, HMCB, skin
  IC50: 4.45 µM
Homo sapiens, HPAF-II, pancreas
  IC50: 11.1 µM
Homo sapiens, HSC-2, HSC-2, upper aerodigestive tract
  IC50: 1.28 µM
Homo sapiens, HSC-3, HSC-3, upper aerodigestive tract
  IC50: 7.22 µM
Homo sapiens, HSC-4, HSC-4, upper aerodigestive tract
  IC50: 2.95 µM
Homo sapiens, HT1197, HT-1197, urinary tract
  IC50: 0.37 µM
Homo sapiens, HT-29, HT-29, large intestine
  IC50: > 20 µM
Homo sapiens, HT-144, HT-144, skin
  IC50: > 20 µM
Homo sapiens, HT-1080, HT-1080, soft tissue
  IC50: 4 µM
Homo sapiens, HT-1376, HT-1376, urinary tract
  IC50: 0.49 µM
Homo sapiens, Hs 294T, skin
  IC50: > 20 µM
Homo sapiens, Hs 606.T, breast
  IC50: > 20 µM
Homo sapiens, Hs 688(A).T, skin
  IC50: > 20 µM
Homo sapiens, Hs 695T, skin
  IC50: > 20 µM
Homo sapiens, Hs 739.T, breast
  IC50: > 20 µM
Homo sapiens, Hs 839.T, skin
  IC50: > 20 µM
Homo sapiens, Hs 940.T, skin
  IC50: > 20 µM
Homo sapiens, HuCCT-1, HuCCT1, biliary tract
  IC50: 17.1 µM
Homo sapiens, HuG1-N, stomach
  IC50: 2.53 µM
Homo sapiens, HuTu80, HUTU-80, small intestine
  IC50: 0.83 µM
Homo sapiens, Huh-7, HuH-7, liver
  IC50: 12.5 µM
Homo sapiens, IA-LM, lung
  IC50: > 20 µM
Homo sapiens, J82, urinary tract
  IC50: > 20 µM
Homo sapiens, JHH7, JHH-7, liver
  IC50: 28.3 µM
Homo sapiens, K562, K-562, haematopoietic and lymphoid tissue
  IC50: 0.67 µM
Homo sapiens, KALS-1, KALS-1, central nervous system
  IC50: > 20 µM
Homo sapiens, KE-97, KE-97, stomach
  IC50: 1.09 µM
Homo sapiens, KG-1, haematopoietic and lymphoid tissue
  IC50: > 20 µM
Homo sapiens, KLE, endometrium
  IC50: > 20 µM
Homo sapiens, KM12, KM12, large intestine
  IC50: 2.05 µM
Homo sapiens, KNS-42, KNS-42, central nervous system
  IC50: > 20 µM
Homo sapiens, KNS-62, KNS-62, lung
  IC50: 16 µM
Homo sapiens, KNS-81, central nervous system
  IC50: > 20 µM
Homo sapiens, KP-4, pancreas
  IC50: 0.74 µM
Homo sapiens, KU812, KU812, haematopoietic and lymphoid tissue
  IC50: 0.08 µM
Homo sapiens, KYSE-410, KYSE-410, oesophagus
  IC50: 1.56 µM
Homo sapiens, Kasumi-6, haematopoietic and lymphoid tissue
  IC50: > 20 µM
Homo sapiens, LOUCY, haematopoietic and lymphoid tissue
  IC50: 1.76 µM
Homo sapiens, LUDLU-1, LUDLU-1, lung
  IC50: > 20 µM
Homo sapiens, MCF7, MCF7, breast
  IC50: 11.1 µM
Homo sapiens, MDA-MB-157, MDA-MB-157, breast
  IC50: > 20 µM
Homo sapiens, MDA-MB-415, MDA-MB-415, breast
  IC50: > 20 µM
Homo sapiens, MDA-MB-436, MDA-MB-436, breast
  IC50: > 20 µM
Homo sapiens, MDA-MB-453, MDA-MB-453, breast
  IC50: > 20 µM
Homo sapiens, MDA-MB-468, MDA-MB-468, breast
  IC50: 0.44 µM
Homo sapiens, MEG-01, MEG-01, haematopoietic and lymphoid tissue
  IC50: 0.29 µM
Homo sapiens, MG-63, MG-63, bone
  IC50: > 20 µM
Homo sapiens, MKN-1, MKN1, stomach
  IC50: > 20 µM
Homo sapiens, MKN-45, MKN45, stomach
  IC50: > 20 µM
Homo sapiens, MKN-74, MKN74, stomach
  IC50: > 20 µM
Homo sapiens, MOLT-4, MOLT-4, haematopoietic and lymphoid tissue
  IC50: 1.11 µM
Homo sapiens, MSTO-211H, pleura
  IC50: > 20 µM
Homo sapiens, Malme-3M, skin
  IC50: > 20 µM
Homo sapiens, NCI-H23, NCI-H23, lung
  IC50: 14.4 µM
Homo sapiens, NCI-H28, NCI-H28, pleura
  IC50: > 20 µM
Homo sapiens, NCI-H69, NCI-H69, lung
  IC50: 18.5 µM
Homo sapiens, NCI-H82, NCI-H82, lung
  IC50: 2.28 µM
Homo sapiens, NCI-H209, NCI-H209, lung
  IC50: 5.55 µM
Homo sapiens, NCI-H226, NCI-H226, lung
  IC50: 4.52 µM
Homo sapiens, NCI-H358, NCI-H358, lung
  IC50: 6.06 µM
Homo sapiens, NCI-H441, NCI-H441, lung
  IC50: > 20 µM
Homo sapiens, NCI-H446, NCI-H446, lung
  IC50: 1.68 µM
Homo sapiens, NCI-H460, NCI-H460, lung
  IC50: 0.97 µM
Homo sapiens, NCI-H508, NCI-H508, large intestine
  IC50: 13.1 µM
Homo sapiens, NCI-H520, NCI-H520, lung
  IC50: 9.66 µM
Homo sapiens, NCI-H522, NCI-H522, lung
  IC50: 9.92 µM
Homo sapiens, NCI-H524, NCI-H524, lung
  IC50: 11.3 µM
Homo sapiens, NCI-H596, NCI-H596, lung
  IC50: > 20 µM
Homo sapiens, NCI-H647, NCI-H647, lung
  IC50: 1.4 µM
Homo sapiens, NCI-H650, NCI-H650, lung
  IC50: 8.6 µM
Homo sapiens, NCI-H660, NCI-H660, prostate
  IC50: 7.16 µM
